These are literature values, as cited in patent publication US20030035827A1, “Pharmaceutical compositions containing substrates of enabling enzymes to preferentially deliver drugs away from PBVC or GIC systems” (priority 2001, published 2003).

Like-named read-outs stand apart in the source and are kept apart here.

The series deals with pseudocholinesterase, plasma cholinesterase or butyrocholinesterase (PCE) (Homo sapiens, UniProt P06276).
Setting [1] is: substrate of PCE, previous experiments.
[2] abbreviates: substrate of PCE, previous experiments, read-out: Km.

Sequence of pseudocholinesterase, plasma cholinesterase or butyrocholinesterase (PCE) (P06276 29-602): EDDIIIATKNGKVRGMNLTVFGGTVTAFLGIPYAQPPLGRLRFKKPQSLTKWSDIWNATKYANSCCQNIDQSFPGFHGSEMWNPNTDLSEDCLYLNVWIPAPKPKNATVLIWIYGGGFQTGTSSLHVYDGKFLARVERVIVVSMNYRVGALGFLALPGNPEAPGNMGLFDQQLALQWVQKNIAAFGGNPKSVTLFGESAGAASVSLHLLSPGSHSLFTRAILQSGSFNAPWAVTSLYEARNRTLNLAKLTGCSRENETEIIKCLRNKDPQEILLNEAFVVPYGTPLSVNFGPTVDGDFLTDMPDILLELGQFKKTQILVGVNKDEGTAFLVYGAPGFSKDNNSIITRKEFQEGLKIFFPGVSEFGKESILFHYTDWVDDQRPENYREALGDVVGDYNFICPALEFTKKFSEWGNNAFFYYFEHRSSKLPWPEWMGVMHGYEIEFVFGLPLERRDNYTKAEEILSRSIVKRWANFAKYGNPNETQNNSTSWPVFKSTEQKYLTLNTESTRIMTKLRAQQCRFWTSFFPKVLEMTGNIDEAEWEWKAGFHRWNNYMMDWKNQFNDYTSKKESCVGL

For the compound `CC(=O)OCC[N+](C)(C)C` [Acetylcholine], the Km under setting [1] is reported as 9,000 uM.

Regarding `CC(=O)Oc1ccccc1C(=O)O` [Aspirin], under setting [1], the Kcat is 7,200/min and the Km is 1,600 uM.

On to `C[N+](C)(C)CCOC(=O)c1ccccc1` [Benzoylcholine], for which the Kcat under setting [1] is 15,000/min. Moreover, the Km under setting [2] was 22 µM.

Consider `CCCC(=O)OCC[N+](C)(C)C` [Butyrylcholine], for which the Kcat under setting [1] is given as 80,000/min. For the same compound, the Km under setting [2] is 1700 µM.

Take `CCCC(=O)SCC[N+](C)(C)C` [Butyrylthiocholine]: the Kcat under setting [1] is reported as 30,000/min.

As to `CCCCCCC(=O)OCC[N+](C)(C)C` [Hepanoylcholine], the Kcat is listed as 35,000/min. For the setting “read-out: Km”, the Km is 1110 µM.

For the compound `CC(=O)Oc1ccc2c3c1O[C@H]1[C@@H](OC(C)=O)C=C[C@H]4[C@@H](C2)N(C)CC[C@@]341` [Heroin], the Km is 450 µM. Under setting [1], the Kcat is 500 min⁻¹.

As for `CCCCCC(=O)OCC[N+](C)(C)C` [Hexanoylcholine], the Km (read-out: Km) is 820 µM. Under setting [1], the Kcat is recorded as 36,000/min.

For the compound `CCCC(=O)Oc1ccccc1[N+](=O)[O-]` [O-Nitrophenylbutyrate], the Kcat is on record as 48,000/min. Besides, under “read-out: Km”, the Km was 400 µM.

For the compound `CCCCC(=O)OCC[N+](C)(C)C` [Pentanoylcholine], the Km (read-out: Km) was 1500 µM. Further, the Kcat under setting [1] is recorded as 63,000/min.

Take `CCN(CC)CCOC(=O)c1ccc(N)cc1` [Procaine]: the Km is 100 µM. In addition, the Kcat under setting [1] is 255 min⁻¹.

Consider `CCC(=O)OCC[N+](C)(C)C` [Propionylcholine], for which the Kcat under setting [1] is 55,000/min. Moreover, the Km under setting [2] is 3100 µM.

On to `CCCCNc1ccc(C(=O)OCCN(C)C)cc1` [Tetracaine], for which, under setting [1], the Kcat is 74 min⁻¹ and the Km is 8 µM.

Consider Succinyldithiocholine, for which, under setting [1], the Kcat was 600 min⁻¹. In addition, the Km under setting [2] is 1080 µM.
